US9708255B2, “(bis)urea and (bis)thiourea compounds as epigenic modulators of lysine-specific demethylase 1 and methods of treating disorders” (priority 2009, dated 2017)

Tests used:
[1] = tested on: global H3K4me2; experiment: Global H3K4me2 level by quantitative Western blot in Calu-6 cells; assay type: cell-based, human; conditions: Calu-6, 10 μM
Procedure: (§1) FIG. 2. Effect of compounds 25-27 on the expression of global H3K4me1 and H3K4me2. […] Proliferating cell nuclear antigen (PCNA) was used as a loading control. Shown are Western blot images from a single representative experiment performed in triplicate. Relative protein expression levels were determined by quantitative Western analysis using the Odyssey infrared detection system shown as bar graphs. The results represent the mean of three treatments ±SD. The protein expression level for control samples was set to a value of 1.
(§2) The ability of the target (bis)ureas and (bis)thioureas to inhibit LSD1 was determined in an assay procedure utilizing the recombinant human enzyme. Expression and purification of LSD1 were conducted as previously reported. Enzymatic activity of LSD1 in the presence of target compounds was determined using luminol-dependent chemiluminescence to measure the production of H2O2, as previously described. The results of these experiments are summarized in Table 1, and graphically in FIG. 1. […] Subsequent experiments were conducted in the Calu-6 human anaplastic non-small cell lung carcinoma line because it has a highly reproducible response to epigenetic modulation, and because it is known that various tumor suppressor genes are silenced in this line. In order for synthetic analogues to be effective at the cellular level, any observed decreases in cellular LSD1 activity should be accompanied by an increase in global H3K4me1 and H3K4me2 content. […] The reduction in H3K4me2 and corresponding increase in H3K4me1 by 26 at both 24 and 48 hours cannot be readily explained, and is the subject of continuing investigation.
(§3) Cytoplasmic and nuclear fractions were prepared for Western blot analysis using the NE-PER™ Nuclear and Cytoplasmic Extraction Kit (Pierce, Rockford, Ill.). Primary antibodies against H3K4me2 were from Millipore. The pCNA monoclonal antibody was purchased from Oncogene Research Products (Cambridge, Mass.). Dye-conjugated secondary antibodies were used for quantification of Western blot results using the Odyssey Infrared Detection system and software (LI-COR Biosciences, Lincoln, Nebr.).

[2] = tested on: GATA4 mRNA; experiment: Re-expression of GATA4 mRNA by qPCR in Calu-6 cells; assay type: cell-based, human; conditions: Calu-6, 24 hours; for effect on GATA4 levels: 5 and 10 μM
Description: (§4) The ability of compounds 25-27 to induce the re-expression of aberrantly silenced tumor suppressor genes in vitro was next measured using the Calu-6 human lung carcinoma cell line. The tumor suppressor genes SFRP2 and GATA4 were chosen because they are known to be under expressed in human lung cancer, and because they are thought to play a role in tumorigenesis when silenced. Thus, the genes coding for these proteins are well-documented LSD1 targets. […]. […]. The increase in GATA4 mRNA caused by […] 27 is reproducible, but is not statistically significant (P>0.05).
(§5) RNA was extracted using TRIzol reagents (Invitrogen, Carlsbad, Calif.). First-strand cDNA was synthesized using SuperScript III reverse transcriptase with an oligo(dT) primer (Invitrogen). qPCR was performed using the following primers: SFRP2 sense, 5′AAGCCTGCAAAAATAAAAATGATG; SFRP2 antisense, 5′TGTAAATGGTCTTGCTCTTGGTCT (annealing at 57.4° C.); GATA4 sense, 5′GGCCGCCCGACACCCCAATCT; GATA4 antisense, 5′ ATAGTGACCCGTCCCATCTCG (annealing at 64° C.). qPCR was performed in a MyiQ single color real-time PCR machine (Bio-Rad, Hercules, Calif.) with GAPDH as an internal control.

[3] = tested on: global H3K4me1; experiment: Global H3K4me1 level by quantitative Western blot in Calu-6 cells; assay type: cell-based, human; conditions: Calu-6, 10 μM
Procedure: as §1, §2, §3

[4] = tested on: SFRP2 mRNA; experiment: Re-expression of SFRP2 mRNA by qPCR in Calu-6 cells; assay type: cell-based, human; conditions: Calu-6, 24 hours; for dose dependence of SFRP2 expression increase: 5 vs 10 μM
Description: as §4, §5

[5] = biological target: recombinant human LSD1 (Homo sapiens, UniProt O60341); experiment: LSD1 demethylase assay, luminol-dependent chemiluminescence (H2O2 production); conditions: read-out: % LSD1 activity remaining, treatment with each analogue at 10 μM
Procedure: Percent of LSD1 activity remaining was determined following 24-hour treatment with 10 mM of each test compound as determined by the luminol-dependent chemiluminescence method.
The ability of the target (bis)ureas and (bis)thioureas to inhibit LSD1 was determined in an assay procedure utilizing the recombinant human enzyme. Expression and purification of LSD1 were conducted as previously reported. Enzymatic activity of LSD1 in the presence of target compounds was determined using luminol-dependent chemiluminescence to measure the production of H2O2, as previously described. […] Full-length human LSD1 cDNA was subcloned into the pET15b bacterial expression vector (Novagen, Madison, Wis.) in frame with an N-terminal 6×HIS-tag and transformed into the BL21(DE3) strain of Escherichia coli. Following selection, expression and purification of recombinant LSD1 protein were performed as previously described. Briefly, expression of LSD1-HIS protein was induced by 1 mM IPTG for 6 h at 25° C. The HIS-tagged protein was purified using Ni-NTA affinity purification resin and column as recommended by the manufacturer (Qiagen, Valencia, Calif.). Bound protein was eluted by imidazole and the eluate was dialyzed in PBS at 4° C. […] The integral values were calibrated against standards containing known concentrations of H2O2, and the activities expressed as pmols H2O2/mg protein/min. […]

[6] = tested on: global H3K4me2; experiment: Global H3K4me2 in HCT116 human colon tumor cells; assay type: cell-based; conditions: HCT116 human colon tumor cells (data not shown)
[7] = biological target: recombinant LSD1/CoRest complex (Homo sapiens, UniProt O60341); conditions: cited from earlier work
[8] = tested on: global H3K4me2; conditions: P19 cell line; cited from earlier work

S=C(NCCCNCCCNCCCNC(=S)NCC(c1ccccc1)c1ccccc1)NCC(c1ccccc1)c1ccccc1 [Compound 27, 1,11-bis-{3-[1-(2,2-diphenylethyl)thioureado]}-4,8-diazaundecane]
global H3K4me2 level ([1]; 24 hours): significant increases
effect on GATA4 mRNA ([2]; 5 μM): no significant effect
increase in GATA4 mRNA ([2]; 10 μM (b97 prints 10 mM)): 1.3 fold
global H3K4me1 level ([3]; 24 hours): significant increases
increase in SFRP2 expression ([4]; 10 mM (so in the source)): 4.8 fold
dose dependence of SFRP2 expression increase [4]: dose dependent

S=C(NCCCNCCCNCCCNC(=S)NCCC(c1ccccc1)c1ccccc1)NCCC(c1ccccc1)c1ccccc1 [Compound 20, 1,11-bis-{3-[1-(3,3-diphenylpropyl)thioureado]}-4,8-diazaundecane]
remaining activity at 10 µM [5]: 92.2%

O=C(NCCCNCCCCNCCCNC(=O)NC(=O)N(c1ccccc1)c1ccccc1)NC(=O)N(c1ccccc1)c1ccccc1 [Compound 31, 1,12-bis-{5-[1-(N,N-diphenyl)carbamyl]ureado}-4,9-diazadodecane]
remaining activity at 10 µM [5]: 26.1%

S=C(NCCCNCCCCCCCNCCCNC(=S)NCC(c1ccccc1)c1ccccc1)NCC(c1ccccc1)c1ccccc1 [Compound 25, 1,15-bis-{3-[1-(2,2-diphenylethyl)thioureado]}-4,12-diazapentadecane]
global H3K4me2 level ([1]; 24 hours): significant increases
global H3K4me2 level ([1]; 48 hours): most dramatic increases
effect on GATA4 levels [2]: did not produce significant increases
increase in global H3K4me2 [6]: 17.4 fold
global H3K4me1 level ([3]; 24 hours): significant increases
global H3K4me1 level ([3]; 48 hours): most dramatic increases
dose dependence of SFRP2 expression increase [4]: dose dependent

NNCCc1ccccc1 [phenelzine]
nucleosomal demethylation [7]: inactivate
global levels of H3K4me2 [8]: increase

S=C(NCCCNCCCCNCCCNC(=S)NCC(c1ccccc1)c1ccccc1)NCC(c1ccccc1)c1ccccc1 [Compound 26, 1,12-bis-{3-[1-(2,2-diphenylethyl)thioureado]}-4,9-diazadodecane]
global H3K4me2 level ([1]; 24 hours): decreased
global H3K4me2 level ([1]; 48 hours): reduction
effect on GATA4 levels [2]: did not produce significant increases
global H3K4me1 level ([3]; 24 hours): significant increase
global H3K4me1 level ([3]; 48 hours): increase
dose dependence of SFRP2 expression increase [4]: same level

N[C@@H]1C[C@H]1c1ccccc1 (racemic) [tranylcypromine]
global levels of H3K4me2 [8]: increase
